Target: Macrophage colony-stimulating factor 1 receptor (Homo sapiens, UniProt P07333)
Assay: Biochemical Assay: IC50 values were determined using the Z′-LYTE® activity assay, with ATP concentration used at Km app for the specific assay (500 μM ATP for CSF-1R (FMS) and 75 μM ATP for KDR (VEGFR2)).The Z′-LYTE® biochemical assay employs a fluorescence-based, coupled-enzyme format and is based on the differential sensitivity of phosphorylated and non-phosphorylated peptides to proteolytic …

Chain of Macrophage colony-stimulating factor 1 receptor (P07333 whole entry): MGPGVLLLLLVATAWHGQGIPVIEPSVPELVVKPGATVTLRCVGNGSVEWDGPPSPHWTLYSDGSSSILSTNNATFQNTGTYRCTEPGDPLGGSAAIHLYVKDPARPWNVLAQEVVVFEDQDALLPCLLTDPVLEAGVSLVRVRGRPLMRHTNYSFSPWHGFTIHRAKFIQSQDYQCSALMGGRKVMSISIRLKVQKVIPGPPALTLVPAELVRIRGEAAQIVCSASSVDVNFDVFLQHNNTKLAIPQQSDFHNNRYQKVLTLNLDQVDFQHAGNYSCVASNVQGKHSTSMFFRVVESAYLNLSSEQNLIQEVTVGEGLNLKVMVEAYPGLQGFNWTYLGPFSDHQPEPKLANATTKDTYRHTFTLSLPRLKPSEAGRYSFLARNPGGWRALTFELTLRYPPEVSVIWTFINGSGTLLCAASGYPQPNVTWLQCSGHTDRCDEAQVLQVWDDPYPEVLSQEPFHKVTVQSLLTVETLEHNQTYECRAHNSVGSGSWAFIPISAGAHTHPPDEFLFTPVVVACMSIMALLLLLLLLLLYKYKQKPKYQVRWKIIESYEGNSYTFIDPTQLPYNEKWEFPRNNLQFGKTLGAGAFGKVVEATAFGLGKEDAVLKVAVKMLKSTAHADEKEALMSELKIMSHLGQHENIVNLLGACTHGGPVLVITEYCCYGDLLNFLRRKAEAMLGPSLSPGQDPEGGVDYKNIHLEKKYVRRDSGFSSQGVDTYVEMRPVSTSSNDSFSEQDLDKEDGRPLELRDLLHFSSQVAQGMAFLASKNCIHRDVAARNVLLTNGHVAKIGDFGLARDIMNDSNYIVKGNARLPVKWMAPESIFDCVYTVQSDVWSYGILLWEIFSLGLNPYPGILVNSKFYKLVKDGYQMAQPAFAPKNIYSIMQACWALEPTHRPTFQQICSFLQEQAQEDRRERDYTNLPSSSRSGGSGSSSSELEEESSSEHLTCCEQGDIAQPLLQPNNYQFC

Compound	IC50 [nM]
Cc1cc(OCCN(C)C)c2oc3cc(Oc4ccc(CCC(=O)N5CCCC5)nc4)ccc3c(=O)c2c1	< 100
Cc1cc(OCCCN2C[C@@H](C)N[C@@H](C)C2)c2oc3cc(Oc4ccc(CCC(=O)NC5CCCC5)nc4)ccc3c(=O)c2c1	< 100
Cc1cc(OCCN(C)C)c2oc3cc(Oc4cccc(NC(=O)Nc5ccccc5)c4)ccc3c(=O)c2c1	< 100

More lines, now with the values ahead:

IC50 [nM]	Compound
< 100	Cc1cc(OCCN(C)C)c2oc3cc(Oc4cccc(C(=O)Nc5ccccc5)c4)ccc3c(=O)c2c1
< 100	Cc1cc(OCCCN(C)C)c2oc3cc(Oc4cccc(NC(=O)Nc5ccccc5)c4)ccc3c(=O)c2c1
< 100	Cc1cc(OCCCN(C)C)c2oc3cc(Oc4cccc(C(=O)Nc5ccccc5)c4)ccc3c(=O)c2c1
